US10919896B2, “Preparation and uses of pyrimidinone derivatives” (Cancer Research Technology Limited, priority 2016, dated 2021)
Structures can show the parent of a compound that is named as a salt.

Tested on: Cdc7 (pS40MCM2 levels in HCT116 cells)
Experiment: Cdc7 Cell Pharmacodynamics Assay Method 2B: pS40MCM2 levels in HCT116 cells, 18 hours
Assay type: cell-based
Conditions: Homo sapiens, HCT-116, read-out: Biomarker Method 2B (pEC50) (converted)
Outline: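 HCT116 cells seeded at 20,000/well, settled overnight, then treated with compound (1:400 dilution from compound plate) for 6 h (Method 2A) or 18 h (Method 2B) at 37° C. Lysates captured on total-MCM2 antibody plates; pS40 MCM2 detected with rabbit anti-pMCM2 Ser40, HRP secondary and chemiluminescent substrate.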

Row | EC50 | Compound
1 | 13.5 nM | O=c1[nH]c(-c2ccnc(F)c2)nc(N2CCCC(F)(F)C2)c1Cl [Compound 90, 5-chloro-4-(3,3-difluoro-1-piperidyl)-2-(2-fluoro-4-pyridyl)-1H-pyrimidin-6-one]
2 | 7.59 nM | O=c1[nH]c(-c2ccnc(F)c2)nc(N2CCNCC(F)(F)C2)c1Cl [Compound 312, 5-chloro-4-(6,6-difluoro-1,4-diazepan-1-yl)-2-(2-fluoro-4-pyridyl)-1H-pyrimidin-6-one hydrochloride]
3 | 5.62 nM | C[C@@H]1CNCCN1c1nc(-c2ccnc(F)c2)[nH]c(=O)c1Cl [Compound 323]
